Test results reported in patent publication US7846434B2, “Materials and methods for improved immunoglycoproteins” (Trubion Pharmaceuticals, Inc., priority 2006, dated 2010).
Where “and” joins values, the source holds several entries; their conditions need not be identical. Equal entries are not always repeated.

Tests used:
CD16 (Fcγ RIII) = experiment: Binding of SMIP bound on WIL2-S cells to soluble FcγR-MIg fusion (CD16), flow cytometry
Method: The assays were carried out as follows. […] The cells were then incubated with the desired FcγR-MIg fusion in the same diluent at a concentration of 1 μg/ml on ice for 45 minutes.
The complexes (WIL2-S cells/SMIP/FcγR-MIg) were then incubated with PE conjugated AffiniPure F(Ab′)2 Goat Anti-Mouse IgG [Jackson Immunoresearch] (a mouse Fc-specific antibody with minimal cross reactivity with human Fc) at a 1:100 dilution. The cells were analyzed by one-color flow cytometry on a FACsCalibur using CellQuest software (Becton Dickinson).
If TRU-016 supernatants from Example 2 were used in this assay instead of purified TRU-016 protein, the SMIP concentration in the supernatant was quantified by direct staining of WIL2-S cells with diluted supernatant along with a TRU-016 standard. TRU-016 was detected by staining with FITC conjugated F(Ab′)2 Goat Anti-Human (gamma) [Caltag H10101] at a 1:50 dilution.

BJAB B cells = experiment: ADCC, 51Cr-labeled BJAB B cells with human PBMC effectors; format: cell-based
Method: To determine the ADCC activity of purified TRU-016, labeled BJAB B cells were used as targets and human peripheral blood mononuclear cells (PBMC) as effector cells. BJAB B cells (10^7 cells) were labeled with 500 μCi/mL ^51Cr sodium chromate for 2 hours at 37° C. in IMDM/10% FBS. PBMCs were isolated from heparinized, human whole blood by fractionation over Lymphocyte Separation Media (LSM, ICN Biomedical) gradients. Reagent samples were added to RPMI media with 10% FBS and serial dilutions of each reagent were prepared. The ^51Cr labeled BJAB were added at 2×10^4 cells/well. The PBMCs were then added at 5×10^5 cells/well for a final ratio of 25:1 effectors (PBMC):targets (BJAB). Reactions were set up in quadruplicate wells of a 96 well plate. Reactions were allowed to proceed for 6 hours at 37° C. in 5% CO2 prior to harvesting and counting. CPM released was measured on a Packard TopCounNXT from 50 μl dried culture supernatant. Percent specific killing was calculated by subtracting (cpm [mean of quadruplicate samples] of sample−cpm spontaneous release)/(cpm maximal release−cpm spontaneous release)×100, and data were plotted as % specific killing versus TRU-016 concentration.

[1] = tested on: DG44 CHO cells transfected with TRU-016; experiment: Effect of castanospermine on DG44 CHO TRU-016 production, shake flasks; format: cell-based, Chinese hamster; conditions: for Average TRU-016 Produced (ug/mL) ± SD: duplicate flasks
Method: Prior to initiation of the experiments, DG44 CHO cells transfected with TRU-016 were grown in shake flasks in Ex-Cell™ 302 CHO serum-free media (SAFC Biosciences) supplemented with 1× non-essential amino acids (MediaTech), 1× sodium pyruvate (MediaTech), 4 mM L-glutamine (MediaTech), 500 nM methotrexate (MP Biomedicals) and 1 mg/L recombinant insulin (Recombulin-GIBCO/Invitrogen Corp.) at 37° C. and 5% carbon dioxide in a humidified incubator. A 200 mM stock concentration of castanospermine (Alexis Biochemicals) was prepared by dilution of the castanospermine in sterile, distilled/deionized water (MediaTech) and filtration through a 13 mm Acrodisc® with a 0.2 μm HT Tuffryn membrane (Pall Corporation). Stock solution was aliquoted into sterile, O-ringed, 0.5 mL microcentrifuge tubes (Fisherbrand, Fisher Scientific) and frozen at −20° C. Approximately 1 hour prior to initiation of experiments, needed aliquots were thawed at room temperature and the contents of each vial mixed well by vortexing.
For each experiment, cells in log phase growth were seeded in the above medium into a total volume of 60 mL in 250 mL shaker flasks at a density of 200,000 cells/mL and CS added at the concentration to be tested. Final CS concentrations of 800 μM, 400 μM, 200 μM, 100 μM, 50 μM, 25 μM and 0 μM were each tested in duplicate flasks. All cultures were incubated at 37° C. and 5% carbon dioxide in a humidified incubator and monitored at least every other day for viable cell density and overall cell viability.
Cultures were harvested on day 8 when overall cell viability was 50-70% (Expt. 1) and 30-50% (Expt. 2). Cells and cellular debris were removed by centrifugation in a Sorvall Super T21 at 3000 rpm for 20 minutes after which the supernatant was sterile filtered through a Millipore Steriflip unit with a 0.22 μm Millipore Express Plus membrane and stored at 2-8° C. until purification.

[2] = tested on: CHO cells expressing TRU-016; experiment: Growth and viability of CHO cells expressing TRU-016 cultured with carbohydrate modifier; format: cell-based, Chinese hamster; conditions: castanospermine up to 1000 μM, up to 144 hours
Method: For shake flask runs, log phase host cells were seeded in shake flasks at 100,000 cells/ml with carbohydrate modifier at the concentration to be tested, and optionally with methotrexate (MTX) @ 50 nM.
Cells were seeded at 3×10^6/mL in 1350 mL of Ex-Cell 302 culture media (SATC Biosciences; with added non-essential amino acids, pyrucate, L-glutamine, pen/strep, HT Supplement and insulin, all from Invitrogen) at t=0 and brought to 5 L total volume at T>=72 hours. The cells were incubated at 37° C. and 5% carbon dioxide and monitored for growth and viability daily starting at day 6-7. Supernatants were typically harvested at day 10-12 when cell viability dropped below 60%.
Na-Azide was added to 0.02%, cells were removed by centrifugation and supernatant was filter sterilized through a 0.22 uM filter. Some assays described in other examples herein were performed on the supernatants as indicated, while other assays were performed on material that underwent further protein A purification. […] Cells were incubated at 37° C. and 5% carbon dioxide and monitored daily for growth and viability. […]

## O[C@H]1[C@H](O)[C@@H](O)CN2CC[C@H](O)[C@H]12 [castanospermine]
CD16 (Fcγ RIII); CHO cells cultured with 0, 10, 25, 50, 100 or 200 μM castanospermine
  CD16 binding of Protein A-purified TRU-016 (mean fluorescence intensity): dose-dependent increase
CD16 (Fcγ RIII); low affinity allele, CHO cells cultured with 0, 2, 5, 10, 30 or 100 μg/mL castanospermine
  CD16 binding of TRU-015 purified protein (geometric mean fluorescence intensity): dose-dependent increase
BJAB B cells; 0, 10, 25, 50, 100 or 200 μM castanospermine in culture media
  ADCC activity of TRU-016 purified protein (% specific killing): dose-dependent increase
BJAB B cells; 0-100 μg/mL castanospermine in culture media, PBMC from high affinity (V/V158) and low affinity (F/F158) CD16 donors
  ADCC activity of TRU-015 purified protein (% specific killing): dose-dependent increase
BJAB B cells; culture media containing 200 μM DMJ, 10 μM kifenunsine or 200 μM castanospermine
  ADCC of TRU-016 purified protein (% specific killing): improved
[1]; CS 25 μM
  Average TRU-016 Produced (ug/mL) ± SD: 180.31 ± 6.6 µg/mL
[1]; CS 25 μM, listed as CS
  ICA (Integral Cell Area): 21.4 10^6 cells * days/mL and 21.1 10^6 cells * days/mL
  Specific Productivity: 8.22 pg/cell/day and 8.78 pg/cell/day
[1]; CS 50 μM
  Average TRU-016 Produced (ug/mL) ± SD: 176.63 ± 1.0 µg/mL
[1]; CS 50 μM, listed as CS
  ICA (Integral Cell Area): 21.6 10^6 cells * days/mL and 21.4 10^6 cells * days/mL
  Specific Productivity: 8.15 pg/cell/day and 8.27 pg/cell/day
[1]; CS 100 μM
  ICA (Integral Cell Area): 21.6 10^6 cells * days/mL
  Average TRU-016 Produced (ug/mL) ± SD: 161.83 ± 0.1 µg/mL
[1]; CS 100 μM, listed as CS
  Specific Productivity: 7.48 pg/cell/day and 7.49 pg/cell/day
[1]; CS 200 μM
  Average TRU-016 Produced (ug/mL) ± SD: 143.53 ± 1.4 µg/mL
[1]; CS 200 μM, listed as CS
  ICA (Integral Cell Area): 21.9 10^6 cells * days/mL and 22.0 10^6 cells * days/mL
  Specific Productivity: 6.60 pg/cell/day and 6.47 pg/cell/day
[1]; CS 400 μM
  Specific Productivity: 5.48 pg/cell/day
  Average TRU-016 Produced (ug/mL) ± SD: 124.93 ± 1.4 µg/mL
[1]; CS 400 μM, listed as CS
  ICA (Integral Cell Area): 23.0 10^6 cells * days/mL and 22.4 10^6 cells * days/mL
  Specific Productivity: 5.53 pg/cell/day
[1]; CS 800 μM
  Average TRU-016 Produced (ug/mL) ± SD: 99.65 ± 6.1 µg/mL
[1]; CS 800 μM, listed as CS
  ICA (Integral Cell Area): 23.9 10^6 cells * days/mL and 23.8 10^6 cells * days/mL
  Specific Productivity: 3.99 pg/cell/day and 4.36 pg/cell/day
[1]; CS 25-800 μM
  cell viability and growth (integral cell area): did not appear to be significantly affected
[2]
  cell counts: did not affect
  percent cell viability: did not affect
